Assay [1] addresses T1, noradrenaline reuptake site (Rattus norvegicus, UniProt Q63380).
T1 construct: Adult male CD rats were killed by cervical dislocation, brains removed and frontal cortices (120-150 mg) immediately dissected; from tissue; host or cells: rat frontal cortex membranes (Sprague-Dawley derived CD rats)
Description: Noradrenaline reuptake site binding assay in rat brain ([3H]nisoxetine). Conditions: for Hill slope, NA reuptake site: rat frontal cortex, [3H]nisoxetine, mean ± SEM. The procedure:
(§1) The IC50 was calculated using the following formula: [formula]
The supernatant was discarded and the pellet rehomogenised in Tris buffer, 1:60 w/v, and centrifuged at 40,000 g for 10 minutes. This step was repeated a further twice so that, in total, the brain tissue was homogenised and centrifuged four times. […] All centrifugations were carried out at 4° C.

For assay [2], the target named is T2, dopamine reuptake site (Rattus norvegicus, UniProt P23977).
T2 construct: from tissue; host or cells: rat striatal membranes (Sprague-Dawley derived CD rats)
Description: Dopamine reuptake site binding assay in rat brain ([3H]GBR 12935). Particulars: for Hill slope, DA reuptake site: rat striatum, [3H]GBR 12935, mean ± SEM. The procedure:
as §1
Tissue was homogenised in ice-cold 0.32 M sucrose (1:80 w/v) using a motor driven teflon pestle (12 strokes, 800 rpm) and centrifuged at 1000 g for 12 minutes. […] All centrifugations were carried out at 4° C.

For assay [3], the target named is T3, noradrenaline reuptake site (Homo sapiens, UniProt P23975).
T3 construct: Frozen thalamus was homogenised in ice-cold 0.25 M sucrose (1:40 w/v); from tissue; host or cells: human post-mortem thalamus membranes
As to the kind of experiment: Noradrenaline reuptake site binding assay in human brain ([3H]nisoxetine). Particulars: human thalamus, mean ± SEM. On the procedure: as §1
The pellet was resuspended in Tris buffer (1:40 w/v) and incubated at 37° C. for 10 min (to remove endogenous neurotransmitters) and recentrifuged at 35,000 g for 10 minutes. […] All centrifugations were carried out at 4° C.

Assay [4] has as its target T4, dopamine reuptake site (Homo sapiens, UniProt Q01959).
T4 construct: Frozen putamen was homogenised in ice-cold 0.25 M sucrose (1:40 w/v); from tissue; host or cells: human post-mortem putamen membranes
Description: Dopamine reuptake site binding assay in human brain ([3H]GBR 12935). Conditions: for Hill slope, DA reuptake site: human putamen, [3H]GBR 12935, mean ± SEM. On the procedure: as §1
The membrane pellet was resuspended in Tris buffer (1:40 w/v) and incubated at 37° C. for 10 min (to remove endogenous neurotransmitters) and recentrifuged at 35,000 g for 10 minutes. […] All centrifugations were carried out at 4° C.

Assay [5] deals with mice. As to the kind of experiment: Porsolt test in mice. The assay is classed as in vivo. Particulars: Mus musculus, dose required to increase mobility by 50%. On the procedure: This test was carried out according to the procedure described in Porsolt, R. D. (1981). Behavioural despair. In: Antidepressants: Neurochemical, Behavioural and Clinical Perspectives, ed. […] New York: Raven Press.
(§2) The test compounds were dissolved in deionised water. Control groups of mice were treated with either deionised water or the standard antidepressant, amitriptyline (30 mg/kg p.o.).
Data from the Porsolt test were analysed in two ways.

Assay [6] deals with mice. As to the kind of experiment: Reserpine reversal screen in mice. The assay is classed as in vivo. Particulars: Mus musculus, ip, reversal of reserpine-induced effects, reserpine 10 mg/kg i.p., read-out: ED50, Reserpine test in mice. The procedure:
This was carried as described in U.S. Pat. No. 4,746,680 except that the dose of reserpine was 10 mg/kg (i.p.).
as §2
(§3) Data from the reserpine reversal screen in mice and the reserpine prevention test in rats were used to calculate ED50 values for the reversal and prevention of reserpine-induced effects respectively.

The next assay concerns rats. Description: Prevention of reserpine-induced ptosis in rats. The assay is classed as in vivo. Particulars: Rattus norvegicus, read-out: ED50, Reserpine test in rats. On the procedure: A further standard test for antidepressants but relying on the ability of compounds to prevent rather than reverse reserpine-induced effects in rodents.
The compounds were tested as described in Prog. Neuro-Psychopharmacol. & Biol. Psychiat., 12, 575-584, Buckett et al. Rats were housed five per cage rather than six per cage and ptosis was assessed twice during 60 sec rather than during 30 sec.
as §3

The values that follow come from US6552087B1 (Abbott GmbH & Co. KG, priority 1999, dated 2003).

Each structure is given as a SMILES string. Where a name gives a salt, the structure may show the parent alone.

The term Ki denotes the dissociation constant of the complex between target and ligand, obtained from inhibition or displacement. Lower therefore signals higher affinity. For orientation: ED50 means the dose that gives a 50% effect, or the effect in half of the subjects.

T3 sequence (P23975 whole entry): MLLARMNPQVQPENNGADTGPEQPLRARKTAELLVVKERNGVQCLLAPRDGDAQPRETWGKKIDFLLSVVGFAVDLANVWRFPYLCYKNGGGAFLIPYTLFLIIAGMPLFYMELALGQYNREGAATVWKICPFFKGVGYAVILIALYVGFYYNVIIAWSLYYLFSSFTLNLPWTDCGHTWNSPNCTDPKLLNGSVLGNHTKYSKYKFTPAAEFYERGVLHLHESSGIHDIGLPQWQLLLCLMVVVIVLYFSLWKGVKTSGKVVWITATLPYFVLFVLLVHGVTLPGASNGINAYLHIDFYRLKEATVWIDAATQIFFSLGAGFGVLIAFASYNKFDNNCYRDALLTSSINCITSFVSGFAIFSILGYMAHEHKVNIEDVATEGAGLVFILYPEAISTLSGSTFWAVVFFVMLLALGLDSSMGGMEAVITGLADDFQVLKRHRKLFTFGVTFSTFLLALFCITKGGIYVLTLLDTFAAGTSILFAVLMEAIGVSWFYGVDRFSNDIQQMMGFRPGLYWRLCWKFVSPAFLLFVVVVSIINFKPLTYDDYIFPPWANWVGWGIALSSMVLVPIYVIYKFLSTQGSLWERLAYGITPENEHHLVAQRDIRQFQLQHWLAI
T1 sequence (Q63380 1-617): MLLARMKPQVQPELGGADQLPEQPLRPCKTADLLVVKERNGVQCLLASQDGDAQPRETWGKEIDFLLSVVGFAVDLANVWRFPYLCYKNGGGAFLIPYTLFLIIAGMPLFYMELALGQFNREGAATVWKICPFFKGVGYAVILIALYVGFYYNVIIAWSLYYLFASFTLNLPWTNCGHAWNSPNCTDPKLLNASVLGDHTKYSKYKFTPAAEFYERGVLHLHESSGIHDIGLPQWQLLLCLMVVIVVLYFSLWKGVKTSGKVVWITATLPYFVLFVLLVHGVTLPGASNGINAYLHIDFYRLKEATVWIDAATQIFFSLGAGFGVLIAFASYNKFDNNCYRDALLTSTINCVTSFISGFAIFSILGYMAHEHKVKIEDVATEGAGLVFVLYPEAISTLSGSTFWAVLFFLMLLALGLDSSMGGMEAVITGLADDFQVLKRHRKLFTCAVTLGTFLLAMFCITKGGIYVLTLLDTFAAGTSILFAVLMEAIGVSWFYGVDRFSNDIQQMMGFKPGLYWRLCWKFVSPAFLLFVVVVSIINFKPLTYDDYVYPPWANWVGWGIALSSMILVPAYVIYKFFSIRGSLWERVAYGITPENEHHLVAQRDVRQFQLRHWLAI
T4 sequence (Q01959 whole entry): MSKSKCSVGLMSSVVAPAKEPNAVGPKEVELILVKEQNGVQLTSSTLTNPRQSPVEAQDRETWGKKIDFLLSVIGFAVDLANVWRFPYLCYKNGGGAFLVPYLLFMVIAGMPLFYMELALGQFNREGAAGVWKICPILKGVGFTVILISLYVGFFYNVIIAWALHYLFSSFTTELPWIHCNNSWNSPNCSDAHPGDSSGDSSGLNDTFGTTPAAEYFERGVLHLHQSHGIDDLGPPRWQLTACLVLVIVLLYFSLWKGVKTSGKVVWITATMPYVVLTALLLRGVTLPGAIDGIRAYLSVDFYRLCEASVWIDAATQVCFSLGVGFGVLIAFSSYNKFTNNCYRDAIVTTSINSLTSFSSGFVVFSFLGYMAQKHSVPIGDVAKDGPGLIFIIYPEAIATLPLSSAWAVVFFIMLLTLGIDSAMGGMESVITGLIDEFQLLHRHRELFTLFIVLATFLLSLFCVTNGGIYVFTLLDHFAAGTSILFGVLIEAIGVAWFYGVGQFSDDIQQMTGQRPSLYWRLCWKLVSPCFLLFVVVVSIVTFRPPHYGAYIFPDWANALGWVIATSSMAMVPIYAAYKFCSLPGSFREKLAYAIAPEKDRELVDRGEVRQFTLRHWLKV
T2 sequence (P23977 whole entry): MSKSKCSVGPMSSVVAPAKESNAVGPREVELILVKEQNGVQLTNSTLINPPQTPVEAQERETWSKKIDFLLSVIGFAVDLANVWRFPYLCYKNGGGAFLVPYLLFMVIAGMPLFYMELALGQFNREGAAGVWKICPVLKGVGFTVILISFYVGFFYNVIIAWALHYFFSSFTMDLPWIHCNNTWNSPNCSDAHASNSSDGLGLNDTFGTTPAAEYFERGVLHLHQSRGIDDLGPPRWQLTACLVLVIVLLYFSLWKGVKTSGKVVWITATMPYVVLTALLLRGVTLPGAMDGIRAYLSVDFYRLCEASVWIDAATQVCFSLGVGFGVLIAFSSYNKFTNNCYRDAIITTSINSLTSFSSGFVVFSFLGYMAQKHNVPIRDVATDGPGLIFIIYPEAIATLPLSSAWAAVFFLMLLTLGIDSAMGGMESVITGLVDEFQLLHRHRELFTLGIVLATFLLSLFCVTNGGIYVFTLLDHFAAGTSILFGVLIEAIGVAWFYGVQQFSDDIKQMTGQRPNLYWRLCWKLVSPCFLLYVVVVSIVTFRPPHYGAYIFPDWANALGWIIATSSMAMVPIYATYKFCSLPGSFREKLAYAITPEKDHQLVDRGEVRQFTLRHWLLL

As to `CC(C)CC(N(C)C)C1(c2ccc(Cl)cc2)CCC1` (racemic) [Sibutramine, N,N-dimethyl-1-[1-(4-chlorophenyl)cyclobutyl]-3-methylbutylamine], the Ki in assay [1] was determined as 86 ± 10 nM; at dopamine reuptake site [2], 3070 ± 50 nM; at dopamine reuptake site [4] it was 943 ± 64 nM. The “Hill slope, NA reuptake site” value in assay [1] is “[1.02 ± 0.02]”; in assay [3] it was “[1.34 ± 0.01]”. Moreover, the “Hill slope, DA reuptake site” value at dopamine reuptake site [2] was “[1.14 ± 0.04]”; at dopamine reuptake site [4], “[1.15 ± 0.04]”. In addition, the ED50 is 1.8 mg/kg in the assay with mice [5], 1.8 mg/kg in the assay on mice [6] and roughly 1.5 mg/kg in the assay with rats.
`CC(C)C[C@@H](N(C)C)C1(c2ccc(Cl)cc2)CCC1` [(+)-Sibutramine, hydrochloride]: the Ki is 3040 ± 233 nM in assay [1], 1650 ± 175 nM at dopamine reuptake site [2] and 897 ± 125 nM on dopamine reuptake site [4]. The “Hill slope, NA reuptake site” value in assay [1] is “[1.02 ± 0.06]”; in assay [3] it was “[0.97 ± 0.13]”. For the same compound, the “Hill slope, DA reuptake site” value on dopamine reuptake site [2] is “[1.74 ± 0.20]”; on dopamine reuptake site [4] it was “[1.29 ± 0.04]”. Moreover, the ED50 in the assay on mice [5] is 2.4 mg/kg; with mice [6], roughly 1 mg/kg; in the assay on rats, 0.7 mg/kg.
For the compound `CC(C)C[C@H](N(C)C)C1(c2ccc(Cl)cc2)CCC1.Cl` [(−)-Sibutramine, (−)-N-{1-[1-(4-chlorophenyl)cyclobutyl]-3-methylbutyl}-N,N-dimethylamine hydrochloride], the Ki is 23800 ± 615 nM in assay [1], 4480 ± 65 nM at dopamine reuptake site [2] and 2890 ± 363 nM on dopamine reuptake site [4]. The “Hill slope, NA reuptake site” value in assay [1] is “[1.02 ± 0.08]”; in assay [3], “[1.30 ± 0.04]”. Moreover, the results for the “Hill slope, DA reuptake site” value at dopamine reuptake site [2] and at dopamine reuptake site [4] were “[2.07 ± 0.16]” and “[1.25 ± 0.05]”, respectively. Also, the figures for the ED50 with mice [5], in the assay with mice [6] and in the assay on rats were 9.8 mg/kg, roughly 30 mg/kg and 59 mg/kg, respectively.
